Results published in ChEMBL document CHEMBL1201862, “PubChem BioAssay data set” (2004).
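All cell lines were grown in 96-well plates and treated with compound for 48 hours. GI50 is the concentration that inhibits growth by half.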 The source made the active and inactive calls. Rule as the data show it: active = GI50 up to about 1.1 µM and inactive = higher.

Tests used:
Assay in all cases: DTP human tumour cell line panel, 48 h
[1] = test system: A549
[2] = test system: SF-539
[3] = test system: HOP-62
[4] = test system: NCI-H23
[5] = test system: SF-295
[6] = test system: Hs-578T
[7] = test system: NCI-H226
[8] = test system: HOP-92
[9] = test system: MCF7
[10] = test system: SK-MEL-5
[11] = test system: RXF 393
[12] = test system: LOX IMVI
[13] = test system: SF-268
[14] = test system: NCI/ADR-RES
[15] = test system: UACC-257
[16] = test system: OVCAR-3
[17] = test system: CCRF-CEM
[18] = test system: NCI-H460
[19] = test system: 786-0
[20] = test system: HT-29
[21] = test system: U-251
[22] = test system: OVCAR-8
[23] = test system: MDA-N
[24] = test system: Malme-3M
[25] = test system: ACHN
[26] = test system: MDA-MB-435
[27] = test system: OVCAR-5
[28] = test system: SK-OV-3
[29] = test system: T47D
[30] = test system: KM12
[31] = test system: SK-MEL-2
[32] = test system: MOLT-4
[33] = test system: HCT-15
[34] = test system: UACC-62
[35] = test system: RPMI-8226
[36] = test system: HCC 2998
[37] = test system: SK-MEL-28
[38] = test system: SW-620
[39] = test system: HL-60
[40] = test system: HCT-116
[41] = test system: EKVX
[42] = test system: CAKI-1
[43] = test system: K562
[44] = test system: SNB-19
[45] = test system: NCI-H522
[46] = test system: A498
[47] = test system: MDA-MB-231
[48] = test system: OVCAR-4
[49] = test system: UO-31
[50] = test system: COLO 205
[51] = test system: TK-10
[52] = test system: DU-145
[53] = test system: SN12C
[54] = test system: BT-549
[55] = test system: IGROV-1
[56] = test system: SNB-75
[57] = test system: SR
[58] = test system: PC-3
[59] = test system: M14

Measured: GI50

CCc1n[nH]c(=O)n1/N=C/c1ccc(C)cc1
> 100 µM: [33]
inactive: [1] > 100 µM | [2] > 100 µM | [3] 37.7 µM | [4] > 100 µM | [5] > 100 µM | [6] 3.84 µM | [7] 70.8 µM | [8] > 100 µM | [9] > 100 µM | [10] > 100 µM | [11] > 100 µM | [12] 69.8 µM | [13] 66.5 µM | [14] > 100 µM | [15] 97.7 µM | [16] 69.5 µM | [17] > 100 µM | [18] > 100 µM | [19] > 100 µM | [20] 54.3 µM | [21] > 100 µM | [22] > 100 µM | [23] > 100 µM | [24] > 100 µM | [25] > 100 µM | [26] > 100 µM | [27] > 100 µM | [28] > 100 µM | [29] > 100 µM | [30] 69.3 µM | [31] > 100 µM | [32] 5.2 µM | [34] 60.7 µM | [35] 72.1 µM | [36] > 100 µM | [37] > 100 µM | [38] > 100 µM | [39] 1.37 µM | [40] 97.9 µM | [41] 3.41 µM | [42] > 100 µM | [43] > 100 µM | [44] > 100 µM | [45] > 100 µM | [46] 79.6 µM | [47] > 100 µM | [48] 58.5 µM | [49] 64.9 µM | [50] > 100 µM | [51] 60.3 µM | [52] 65.2 µM | [53] > 100 µM | [54] > 100 µM | [55] 91 µM

CCOC(=O)C(C(=O)OCC)=C1NC2(c3ccccc3Nc3ccccc32)C(C#N)S1 (stereo not drawn)
5.78 µM: [33]
inactive: [56] 16.2 µM | [1] 4.39 µM | [2] 11 µM | [3] 12.2 µM | [4] 4.63 µM | [5] 11.1 µM | [6] 19.1 µM | [57] 2.81 µM | [7] 12 µM | [8] 4.34 µM | [9] 3.39 µM | [10] 10 µM | [58] 4.52 µM | [11] 12.9 µM | [12] 13.6 µM | [13] 13.5 µM | [14] 10.4 µM | [15] 12.8 µM | [17] 6.08 µM | [18] 3.79 µM | [19] 10.4 µM | [20] 4.21 µM | [21] 12.1 µM | [22] 10.9 µM | [23] 14.4 µM | [24] 15.3 µM | [25] 14.9 µM | [26] 7.73 µM | [27] 16.7 µM | [28] 12.7 µM | [29] 4.66 µM | [30] 4.37 µM | [31] 11.6 µM | [32] 3.53 µM | [34] 10.3 µM | [35] 3.01 µM | [36] 4.42 µM | [37] 17 µM | [38] 12.4 µM | [39] 21.9 µM | [40] 9.89 µM | [59] 7.46 µM | [41] 13.7 µM | [42] 16.3 µM | [43] 7.53 µM | [44] 12.6 µM | [45] 13.9 µM | [46] 13.8 µM | [48] 4.3 µM | [49] 12.7 µM | [50] 6.75 µM | [51] 13.5 µM | [52] 12 µM | [53] 5.6 µM | [54] 14.2 µM | [55] 11.1 µM
active: [16] 0.286 µM
